Columns and labels:
[1] = tested on: S22 (DNA, single strand) AAAAGAAAGAAGGTGCTC; experiment: fluorescence polarization; settings: 100 mM NaCl, 1 mM MgCl2; 20 mM HEPES, 25 °C, 0.5 μM compound
[2] = tested on: DNA Seq8 (DNA, single strand) TGAAGGAAGTT; experiment: fluorescence polarization; settings: 100 mM NaCl, 1 mM MgCl2; 20 mM HEPES, 25 °C; 0.5 μM SMN-C2
[3] = tested on: DNA S18 (DNA, single strand) AAAAGGAGGAAGGTGCTC; experiment: fluorescence polarization; settings: 100 mM NaCl, 1 mM MgCl2; 20 mM HEPES, 25 °C; 0.5 μM SMN-C2
[4] = tested on: S12 (DNA, single strand) AAAAGAAGTAAGGTGCTC; experiment: fluorescence polarization; settings: 100 mM NaCl, 1 mM MgCl2; 20 mM HEPES, 25 °C, 0.5 μM compound
[5] = tested on: RNA Seq20 (RNA, hairpin) UGAAGGAAGGUUUCGACCUUCCUUCA; experiment: fluorescence polarization; settings: 100 mM NaCl; 20 mM HEPES, 25 °C, 0.5 μM compound
[6] = tested on: DNA Seq7 (DNA, single strand) TTAAGGAAGGT; experiment: fluorescence polarization; settings: 100 mM NaCl, 1 mM MgCl2; 20 mM HEPES, 25 °C; 0.5 μM SMN-C2
[7] = tested on: DNA Seq10 (DNA, single strand) TAAAGGAAGGT; experiment: fluorescence polarization; settings: 100 mM NaCl, 1 mM MgCl2; 20 mM HEPES, 25 °C; 0.5 μM SMN-C2
[8] = tested on: S15 (DNA, single strand) AAAAGAAGGAATGTGCTC; experiment: fluorescence polarization; settings: 100 mM NaCl, 1 mM MgCl2; 20 mM HEPES, 25 °C, 0.5 μM compound
[9] = tested on: RNA Seq8 (RNA, single strand) UGAAGGAAGUU; experiment: fluorescence polarization; settings: 100 mM NaCl; 20 mM HEPES, 25 °C; 0.5 μM SMN-C2
[10] = tested on: RNA Seq12 (RNA, single strand) UGAAAGAAGGU; experiment: fluorescence polarization; settings: 100 mM NaCl; 20 mM HEPES, 25 °C; 0.5 μM SMN-C2
[11] = tested on: S11 (DNA, single strand) AAAAGATGGAAGGTGCTC; experiment: fluorescence polarization; settings: 100 mM NaCl, 1 mM MgCl2; 20 mM HEPES, 25 °C, 0.5 μM compound
[12] = tested on: DNA Seq11 (DNA, single strand) TGGAGGAAGGT; experiment: fluorescence polarization; settings: 100 mM NaCl, 1 mM MgCl2; 20 mM HEPES, 25 °C; 0.5 μM SMN-C2
[13] = tested on: S4 (DNA, single strand) AAAAAGAAGAAGGTGCTC; experiment: fluorescence polarization; settings: 100 mM NaCl, 1 mM MgCl2; 20 mM HEPES, 25 °C, 0.5 μM compound
[14] = tested on: DNA S9 (DNA, single strand) AAAATAAGGAAGGTGCTC; experiment: fluorescence polarization; settings: 100 mM NaCl, 1 mM MgCl2; 20 mM HEPES, 25 °C; 0.5 μM SMN-C2
[15] = tested on: RNA Seq6 (RNA, single strand) UGAAGGAAGGU; experiment: fluorescence polarization; settings: 100 mM NaCl; 20 mM HEPES, 25 °C; 0.5 μM SMN-C2
[16] = tested on: RNA Seq15 (RNA, single strand) UGAAGGAUGGU; experiment: fluorescence polarization; settings: 100 mM NaCl; 20 mM HEPES, 25 °C; 0.5 μM SMN-C2
[17] = tested on: RNA Seq4 (RNA, single strand) AAGAAGGAAGGUGC; experiment: fluorescence polarization; settings: 100 mM NaCl; 20 mM HEPES, 25 °C, 0.5 μM compound
[18] = tested on: RNA Seq23 (RNA, mismatch bulge abasic) GCCAGGCGCACUUUCGAGUGCGCGAAGGAAGGCUGGC; experiment: fluorescence polarization; settings: 100 mM NaCl; 20 mM HEPES, 25 °C, 0.5 μM compound
[19] = tested on: DNA Seq14 (DNA, single strand) AGAAGGTAGGT; experiment: fluorescence polarization; settings: 100 mM NaCl, 1 mM MgCl2; 20 mM HEPES, 25 °C; 0.5 μM SMN-C2
[20] = tested on: S16 (DNA, single strand) AAAAGAAGGAAGTTGCTC; experiment: fluorescence polarization; settings: 100 mM NaCl, 1 mM MgCl2; 20 mM HEPES, 25 °C, 0.5 μM compound
[21] = tested on: RNA Seq14 (RNA, single strand) AGAAGGUAGGU; experiment: fluorescence polarization; settings: 100 mM NaCl; 20 mM HEPES, 25 °C; 0.5 μM SMN-C2
[22] = tested on: DNA Seq16 (DNA, single strand) TGAAGGAAAGT; experiment: fluorescence polarization; settings: 100 mM NaCl, 1 mM MgCl2; 20 mM HEPES, 25 °C; 0.5 μM SMN-C2
[23] = tested on: RNA Seq18 (binding site 1 sequence) (RNA, mismatch bulge abasic, pseudouridine at 5 and 6 of strand 1) AUACUUACCU/GGAGGUAAGUCU; experiment: fluorescence polarization; settings: 100 mM NaCl; 20 mM HEPES, 25 °C; 0.5 μM SMN-C2
[24] = tested on: S13 (DNA, single strand) AAAAGAAGGTAGGTGCTC; experiment: fluorescence polarization; settings: 100 mM NaCl, 1 mM MgCl2; 20 mM HEPES, 25 °C, 0.5 μM compound
[25] = tested on: RNA Seq9 (RNA, single strand) UUAAGGAAGUU; experiment: fluorescence polarization; settings: 100 mM NaCl; 20 mM HEPES, 25 °C; 0.5 μM SMN-C2
[26] = tested on: RNA Seq4 (immobilised) (RNA, single strand) AAGAAGGAAGGUGC; experiment: SPR, immobilised RNA; settings: running buffer not shown; SMN-C2 up to 20 μM
[27] = tested on: DNA Seq6 (DNA, single strand) TGAAGGAAGGT; experiment: ITC; settings: 100 mM NaCl; 30 mM MES pH 6.1, 5% DMSO, 25 °C
[28] = tested on: S7 (DNA, single strand) AATAGAAGGAAGGTGCTC; experiment: fluorescence polarization; settings: 100 mM NaCl, 1 mM MgCl2; 20 mM HEPES, 25 °C, 0.5 μM compound
[29] = tested on: RNA Seq13 (RNA, single strand) UGAAGAAAGGU; experiment: fluorescence polarization; settings: 100 mM NaCl; 20 mM HEPES, 25 °C; 0.5 μM SMN-C2
[30] = tested on: S25 (DNA, single strand) AAAAGAAGGAAGATGCTC; experiment: fluorescence polarization; settings: 100 mM NaCl, 1 mM MgCl2; 20 mM HEPES, 25 °C, 0.5 μM compound
[31] = tested on: DNA Seq15 (DNA, single strand) TGAAGGATGGT; experiment: fluorescence polarization; settings: 100 mM NaCl, 1 mM MgCl2; 20 mM HEPES, 25 °C; 0.5 μM SMN-C2
[32] = tested on: DNA Seq2 (DNA, single strand) GAAGGAAGG; experiment: fluorescence polarization; settings: 100 mM NaCl, 1 mM MgCl2; 20 mM HEPES, 25 °C; 0.5 μM SMN-C2
[33] = tested on: RNA Seq10 (RNA, single strand) UAAAGGAAGGU; experiment: fluorescence polarization; settings: 100 mM NaCl; 20 mM HEPES, 25 °C; 0.5 μM SMN-C2
[34] = tested on: S10 (DNA, single strand) AAAAGTAGGAAGGTGCTC; experiment: fluorescence polarization; settings: 100 mM NaCl, 1 mM MgCl2; 20 mM HEPES, 25 °C, 0.5 μM compound
[35] = tested on: DNA Seq20 (DNA, hairpin) TGAAGGAAGGTTTCGACCTTCCTTCA; experiment: fluorescence polarization; settings: 100 mM NaCl, 1 mM MgCl2; 20 mM HEPES, 25 °C, 0.5 μM compound
[36] = tested on: DNA S1 (DNA, single strand) AAAAGAAGGAAGGTGCTC; experiment: fluorescence polarization; settings: 100 mM NaCl, 1 mM MgCl2; 20 mM HEPES, 25 °C; 0.5 μM SMN-C2
[37] = tested on: DNA Seq17 (DNA, single strand) TGAAGGAAGAT; experiment: fluorescence polarization; settings: 100 mM NaCl, 1 mM MgCl2; 20 mM HEPES, 25 °C; 0.5 μM SMN-C2

- Kd [1]: 44.7 ± 7.2 µM
- Kd [2]: 14.7 ± 0.7 µM
- Kd [3]: > 50 µM
- Kd [4]: 37.4 ± 6.7 µM
- Kd [5]: > >100 μM
- Kd [6]: > 100 µM
- Kd [7]: > 100 µM
- Kd [8]: 31.4 ± 4 µM
- Kd [9]: > 100 µM
- Kd [10]: > 100 µM
- Kd [11]: 26.3 ± 1.2 µM
- Kd [12]: 57.3 ± 20.0 µM
- Kd [13]: > > 50 µM
- Kd [14]: 56.2 ± 13.9 µM
- Kd [15]: 17.5 ± 2.2 µM
- Kd [16]: 9.4 ± 0.5 µM
- Kd [17]: 21.7 ± 4.3 µM
- Kd [18]: 5.6 ± 1.7 µM
- Kd [19]: > 100 µM
- Kd [20]: 48.9 ± 12.2 µM
- Kd [21]: 9.9 ± 0.8 µM
- Kd [22]: 27.4 ± 6.0 µM
- Kd [23]: 60 ± 36 µM
- Kd [24]: 26.4 ± 2.2 µM
- Kd [25]: > 100 µM
- Kd [26]: 5.4 µM
- Kd [27]: 4.8 µM
- Kd [28]: 17.3 ± 1.7 µM
- Kd [29]: > 100 µM
- Kd [30]: 48 ± 7.8 µM
- Kd [31]: 41.1 ± 4.4 µM
- Kd [32]: 34.3 ± 9.6 µM
- Kd [33]: > 100 µM
- Kd [34]: 26.4 ± 2.2 µM
- Kd [35]: 52.0 ± 25.7 µM
- Kd [36]: 15.3 ± 0.6 µM
- Kd [37]: 56.4 ± 10.4 µM
Compound: CCN1CCN(c2ccc3cc(-c4cn5cc(C)nc(C)c5n4)c(=O)oc3c2)C[C@@H]1C

From PMC8373063 (2021)
